Results on 6 molecules are retold here after ChEMBL document CHEMBL3596163, “Discovery of imidazo[1,5-a]pyridines and -pyrimidines as potent and selective RORc inverse agonists” (Bioorg Med Chem Lett, 2015).

Activity calls are given as the source filed them. No cut-off for these calls is given here. Some results are limits rather than exact numbers.

Data set [1] relates to PBMC. Put plainly: Antiinflammatory activity in human PBMC assessed as inhibition of IL-17 production after 48 hrs by Sandwich ELISA relative to control. The data set is classed as functional. For orientation: In an ELISA, binding on a coated surface is turned into a signal by an enzyme label.
Data set [2] in a line: Lipophilicity, log D of the compound at pH 7.4. The format is physicochemical. The note with it: buffer.
In data set [3] the target is T1, Nuclear receptor ROR-beta (Homo sapiens, UniProt Q92753).
T1 sequence (Q92753 whole entry): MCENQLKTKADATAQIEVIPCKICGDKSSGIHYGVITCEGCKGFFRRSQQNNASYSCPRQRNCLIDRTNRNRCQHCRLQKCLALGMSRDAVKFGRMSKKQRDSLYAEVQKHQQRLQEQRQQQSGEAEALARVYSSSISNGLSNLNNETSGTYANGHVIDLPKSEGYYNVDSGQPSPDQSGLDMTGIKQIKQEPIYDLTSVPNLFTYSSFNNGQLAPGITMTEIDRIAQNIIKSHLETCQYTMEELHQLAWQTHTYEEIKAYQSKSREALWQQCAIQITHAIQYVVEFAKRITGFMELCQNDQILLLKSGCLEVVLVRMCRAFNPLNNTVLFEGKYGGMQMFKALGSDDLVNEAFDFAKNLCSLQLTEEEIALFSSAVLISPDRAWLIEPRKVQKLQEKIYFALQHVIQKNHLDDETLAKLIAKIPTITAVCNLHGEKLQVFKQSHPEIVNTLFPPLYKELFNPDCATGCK
Put plainly: Inverse agonist activity at GAL4-fused human RORb expressed in HEK293T cells assessed as suppression of basal transcriptional activity after 20 hrs by dual-glo luciferase reporter gene assay. The data set is classed as cell-based, HEK-293T. On the technique in general: A reporter such as luciferase makes a cellular process visible.

The target of data set [4] is T2, Oxysterols receptor LXR-beta (Homo sapiens) (UniProt P55055).
T2 sequence (whole entry): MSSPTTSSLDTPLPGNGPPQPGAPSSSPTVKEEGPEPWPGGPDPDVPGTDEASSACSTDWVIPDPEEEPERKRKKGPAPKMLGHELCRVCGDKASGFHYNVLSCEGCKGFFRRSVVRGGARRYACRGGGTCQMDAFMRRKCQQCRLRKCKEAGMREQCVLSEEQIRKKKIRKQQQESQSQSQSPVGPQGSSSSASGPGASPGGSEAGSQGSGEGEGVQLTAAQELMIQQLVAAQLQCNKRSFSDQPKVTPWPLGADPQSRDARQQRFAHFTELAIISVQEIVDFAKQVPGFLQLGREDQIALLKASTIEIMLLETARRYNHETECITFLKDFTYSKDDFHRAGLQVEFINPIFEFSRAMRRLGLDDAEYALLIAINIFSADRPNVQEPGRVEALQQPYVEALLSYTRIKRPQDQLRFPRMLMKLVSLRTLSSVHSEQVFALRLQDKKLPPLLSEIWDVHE
Put plainly: Antagonist activity at GAL4-fused human LXRbeta expressed in HEK293T cells assessed as inhibition of T0901317-induced basal transcriptional activity up to 10 uM after 20 hrs by dual-glo luciferase reporter gene assay. The format is cell-based. The note with it: HEK-293T.

In data set [5] the test system is PBMC. Put plainly: Cytotoxicity against human PBMC assessed as effect on cell physiology after 48 hrs by CellTiter-Glo assay. The data set is classed as cell-based. On the technique in general: ATP-based viability assays read luminescence as a measure of living cells.
Data set [6] has as its target T3, Oxysterols receptor LXR-alpha (Homo sapiens, UniProt Q13133).
T3 sequence (Q13133 whole entry): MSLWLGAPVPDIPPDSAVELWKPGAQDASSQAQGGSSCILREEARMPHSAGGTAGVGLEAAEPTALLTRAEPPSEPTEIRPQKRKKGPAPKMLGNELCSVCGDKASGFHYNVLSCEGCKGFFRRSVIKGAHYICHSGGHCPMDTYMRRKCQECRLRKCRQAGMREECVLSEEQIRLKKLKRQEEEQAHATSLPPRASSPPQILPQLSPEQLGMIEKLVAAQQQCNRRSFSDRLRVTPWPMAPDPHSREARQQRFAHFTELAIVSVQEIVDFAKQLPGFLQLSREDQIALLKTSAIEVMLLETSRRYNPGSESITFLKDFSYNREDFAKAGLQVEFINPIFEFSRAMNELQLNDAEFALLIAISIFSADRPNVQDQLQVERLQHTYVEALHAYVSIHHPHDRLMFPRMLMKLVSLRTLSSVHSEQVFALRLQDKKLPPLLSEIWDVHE
Put plainly: Agonist activity at GAL4-fused human LXRalpha expressed in HEK293T cells assessed as activation of basal transcriptional activity after 20 hrs by dual-glo luciferase reporter gene assay. The data set is classed as cell-based, HEK-293T.

Data set [7] relates to PBMC. Kind of data set: Inhibition of IFNgamma production in human PBMC after 48 hrs by Sandwich ELISA. The format is functional, cell-based.
For data set [8], the system named is PBMC. Put plainly: Antiinflammatory activity in human PBMC assessed as inhibition of IL-17 production after 48 hrs by Sandwich ELISA. The format is functional, cell-based.
In data set [9] the target is T4, Nuclear receptor subfamily 1 group I member 2 (Homo sapiens, UniProt O75469).
T4 sequence (O75469 whole entry): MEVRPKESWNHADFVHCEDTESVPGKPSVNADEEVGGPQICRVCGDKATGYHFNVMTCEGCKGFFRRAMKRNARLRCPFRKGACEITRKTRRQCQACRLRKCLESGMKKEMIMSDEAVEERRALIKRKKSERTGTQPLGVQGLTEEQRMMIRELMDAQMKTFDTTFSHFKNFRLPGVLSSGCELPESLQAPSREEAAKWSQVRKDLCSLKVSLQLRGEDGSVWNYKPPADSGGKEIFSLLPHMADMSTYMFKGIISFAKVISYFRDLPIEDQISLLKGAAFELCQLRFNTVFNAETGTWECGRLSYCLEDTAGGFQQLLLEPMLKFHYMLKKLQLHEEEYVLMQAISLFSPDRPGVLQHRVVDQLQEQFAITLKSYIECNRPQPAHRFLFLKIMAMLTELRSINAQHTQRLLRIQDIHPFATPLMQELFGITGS
Put plainly: Agonist activity at GAL4-fused human PXR expressed in HEK293T cells assessed as activation of basal transcriptional activity after 20 hrs by dual-glo luciferase reporter gene assay. The data set is classed as cell-based, HEK-293T.

In data set [10] the target is T4, Nuclear receptor subfamily 1 group I member 2. Put plainly: Antagonist activity at GAL4-fused human PXR expressed in HEK293T cells assessed as inhibition of T0901317-induced basal transcriptional activity up to 10 uM after 20 hrs by dual-glo luciferase reporter gene assay. The format is cell-based. The settings on record: hek-293t.
Data set [11] concerns the target T5, Bile acid receptor (Homo sapiens) (UniProt Q96RI1).
T5 sequence (whole entry): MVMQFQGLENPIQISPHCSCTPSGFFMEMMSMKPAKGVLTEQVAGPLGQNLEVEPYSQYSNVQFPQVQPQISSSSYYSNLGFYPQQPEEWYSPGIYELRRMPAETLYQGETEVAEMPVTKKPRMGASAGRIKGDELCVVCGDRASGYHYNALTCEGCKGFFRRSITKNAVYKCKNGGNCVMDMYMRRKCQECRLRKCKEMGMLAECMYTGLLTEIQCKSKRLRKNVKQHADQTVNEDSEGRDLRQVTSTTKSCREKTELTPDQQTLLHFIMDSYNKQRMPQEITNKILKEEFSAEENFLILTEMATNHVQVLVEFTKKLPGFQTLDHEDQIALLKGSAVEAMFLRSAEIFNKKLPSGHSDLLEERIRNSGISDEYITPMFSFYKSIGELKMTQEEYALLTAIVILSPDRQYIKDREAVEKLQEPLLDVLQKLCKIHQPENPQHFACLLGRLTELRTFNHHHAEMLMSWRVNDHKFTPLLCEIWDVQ
Put plainly: Antagonist activity at GAL4-fused human FXR expressed in HEK293T cells assessed as inhibition of T0901317-induced basal transcriptional activity up to 10 uM after 20 hrs by dual-glo luciferase reporter gene assay. The format is cell-based. The note with it: HEK-293T.

For the molecule `O=C(O)c1ccc(-c2nc(C(=O)c3c(Cl)cccc3C3CC3)n3cccnc23)cc1O`, in the data set with PBMC [1], the “%max” value came to 73%. The molecule further returned a pH-dependent lipophilicity (logD) in data set [2] of 1.5. In addition, the EC50 in [3] is above 10 µM; in the data set on PBMC [5], above 10 µM; in [6] it was above 10 µM; in the data set on PBMC [7] it was above 10 µM; with PBMC [8], 0.03 µM; in data set [9], above 10 µM. Besides, the inhibition result in [4] and in data set [11] was “inactive” each time. Moreover, the “inhibition (INH)” value in data set [10] is recorded as “Not Active”.

With `O=C(O)c1ccc(-c2nc(C(=O)c3c(Cl)cccc3C(F)(F)F)n3ccccc23)cc1`, the “%max” value with PBMC [1] worked out at 69%. Moreover, the logD in [2] was 1.5. Besides, the EC50 in [3] is above 10 µM; in the data set on PBMC [5] it was above 10 µM; in [6], above 10 µM; in the data set on PBMC [7], above 10 µM; in the data set with PBMC [8], 0.23 µM; in [9], above 10 µM. The inhibition entry in data set [4] and in [11] was “inactive” each time. In data set [10], the “inhibition (INH)” value is recorded as “Not Active”.

`O=C(O)c1ccc(-c2nc(C(=O)c3c(Cl)cccc3C(F)(F)F)n3ccccc23)cc1O`: the “%max” value in the data set with PBMC [1] was 70%. The logD in data set [2] worked out at 2.5. The EC50 is above 10 µM in [3]; above 10 µM in the data set on PBMC [5]; above 10 µM in data set [6]; above 10 µM in the data set with PBMC [7]; 0.017 µM with PBMC [8]; above 10 µM in data set [9]. Besides, the inhibition result in data set [4] and in [11] was “inactive” each time. Besides, the “inhibition (INH)” value in [10] was “Not Active”.

As to `O=C(O)c1ccc(-c2nc(C(=O)c3c(Cl)cccc3C(F)(F)F)n3ccccc23)c(F)c1`, the “%max” value in the data set on PBMC [1] is reported as 63%. For the same molecule, the logD in [2] was 1.8. Also, the EC50 in data set [3] was above 10 µM; in the data set on PBMC [5], above 10 µM; in data set [6], above 10 µM; with PBMC [7] it was above 10 µM; in the data set on PBMC [8] it was 0.12 µM; in data set [9], above 10 µM. Also, the inhibition result in [4] and in [11] was “inactive” in each case. For the same molecule, the “inhibition (INH)” value in [10] was “Not Active”.

For the molecule `O=C(O)c1ccc(-c2nc(C(=O)c3c(Cl)cccc3C(F)(F)F)n3c2CCCC3)c(F)c1`, the “%max” value with PBMC [1] is 64%. In [2], this molecule gave a logD of 1.3. Further, the EC50 is above 10 µM in data set [3]; above 10 µM with PBMC [5]; above 10 µM in data set [6]; above 10 µM in the data set with PBMC [7]; 0.23 µM in the data set on PBMC [8]; above 10 µM in data set [9]. Besides, the inhibition entry in [4] and in data set [11] was “inactive” each time. Moreover, in data set [10], the “inhibition (INH)” value is “Not Active”.

Consider `O=C(O)c1ccc(-c2nc(C(=O)c3c(Cl)cccc3C3CC3)n3c2CCCC3)c(F)c1`, for which, in the data set on PBMC [1], the “%max” value is on record as 72%. The same molecule had a logD in data set [2] of 1.6. For the same molecule, the EC50 was above 10 µM in data set [3]; above 10 µM in the data set on PBMC [5]; above 10 µM in data set [6]; above 10 µM in the data set with PBMC [7]; 0.3 µM in the data set on PBMC [8]; above 10 µM in [9]. Besides, the inhibition entry in data set [4] and in data set [11] was “inactive” in each case. Besides, the “inhibition (INH)” value in [10] is reported as “Not Active”.

By logD is commonly meant lipophilicity at a set pH, counting ionised and neutral species. A word on the EC50: it is the concentration giving half of the maximal effect.
